Literature values in US20150086616A1, “METHOD FOR THE PREVENTION AND TREATMENT OF ALZHEIMER'S DISEASE” (priority 2013, published 2015).

How the values were obtained:
Alzheimer's disease = details: for efficacy of oral NSAID as treatment of Alzheimer's disease: oral administration
[1] = highly lipophilic drugs
[2] = ophthalmic
[3] = after multiple oral doses of ibuprofen

Structure (SMILES) | direct cyclooxygenase inhibition (cyclooxygenase) | crossing of the blood brain barrier [1] | efficacy of oral NSAID as treatment of Alzheimer's disease (Alzheimer's disease) | also measured
C[C@H](C(=O)O)c1ccc(-c2ccccc2)c(F)c1 (single isomer, unassigned) [S-enantiomer of flurbiprofen] | is a cyclooxygenase inhibitor |  |  | 
C[C@@H](C(=O)O)c1ccc(-c2ccccc2)c(F)c1 [R-flurbiprofen] | devoid of any direct cyclooxygenase inhibition |  |  | phase III clinical trial for the treatment of Alzheimer's disease (Alzheimer's disease; phase III clinical trial): failed
O=C(O)Cc1ccccc1Nc1c(Cl)cccc1Cl [diclofenac] |  | readily cross the blood brain barrier |  | anti-inflammatory action compared with flurbiprofen [2]: more anti-inflammatory action; burning sensation compared with flurbiprofen [2]: less burning sensation
CC(C(=O)O)c1ccc(-c2ccccc2)c(F)c1 (stereo not drawn) [flurbiprofen] |  | readily cross the blood brain barrier | not an effective treatment | 
CC(C)Cc1ccc(C(C)C(=O)O)cc1 (stereo not drawn) [ibuprofen] |  | readily cross the blood brain barrier | not an effective treatment | brain concentration [3]: 0.4 µg/g; concentration in fat [3]: 58.4 μg/g tissue
